Consider four compounds from the NIST ThermoML archive (doi:10.1016/j.tca.2005.04.030).

± gives the expanded uncertainty stated by the source.

Series [1] in a line: refractive index (Na D-line) (dimensionless). The note with it: 298.1 K, 101.33 kPa, Liquid.
For series [2] the following is noted: 101.33 kPa, Liquid; for mass density: 298.1 K, Vibrating tube method; for speed of sound: 298.15 K, Anton Paar DSA 48.

Take `O` [water]: in series [1] (ATAGO RX-1000), the refractive index stood at 1.3325 ± 8e-05.
As for `CCO` [ethanol], in series [1] (ATAGO RX-1000), the refractive index was found to be 1.3592 ± 0.00011. In series [2], the mass density came out at 785.22 ± 0.25 kg/m3 and the speed of sound was 1143 ± 2 m/s.
For `CO` [methanol], the refractive index in series [1] (ATAGO RX-1000) came out at 1.3264 ± 0.0002. In series [2], the mass density was 786.63 ± 0.25 kg/m3 and the speed of sound came to 1101 ± 2 m/s.
As to `CCCCOC(C)(C)C` [butane, 1-(1,1-dimethylethoxy)-], the refractive index in series [1] (Anton Paar DSA 48) is 1.3917 ± 5e-05. Moreover, in series [2], the mass density stood at 757.57 ± 0.17 kg/m3 and the speed of sound is on record as 1113 ± 2 m/s.
